The compounds below were run against human MGAT-2 (Homo sapiens (Human), UniProt Q3SYC2) (assay: MGAT LCMS assay (h-MGAT LCMS)). Settings: human MGAT2.
human MGAT-2, sequence (Q3SYC2 whole entry): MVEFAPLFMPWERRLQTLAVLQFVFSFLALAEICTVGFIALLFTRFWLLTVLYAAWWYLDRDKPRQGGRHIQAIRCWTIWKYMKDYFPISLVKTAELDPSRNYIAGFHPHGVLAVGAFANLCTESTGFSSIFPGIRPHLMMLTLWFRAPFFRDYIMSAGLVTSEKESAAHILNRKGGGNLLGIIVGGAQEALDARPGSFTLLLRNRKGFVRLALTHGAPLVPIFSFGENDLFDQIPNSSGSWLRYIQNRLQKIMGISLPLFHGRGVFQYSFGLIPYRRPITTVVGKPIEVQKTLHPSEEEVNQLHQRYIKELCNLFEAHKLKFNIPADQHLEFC
Type: biochemical
Method: The MGAT enzyme reactions were performed in Corning FALCON® 96-well polypropylene plates, in a total volume of 60 μL of 50 mM potassium phosphate buffer pH 7.4, containing a final concentration of 100 μM 2-oleoylglycerol, 15 μM oleoyl-coenzyme A and 0.0013 μg/μL human or mouse MGAT-2 or 0.0026 μg/μL rat recombinant MGAT-2 membranes expressed in Sf9 cells. Assay plates were run through a fully automated robotics system and shaken for 5 seconds every minute for a total 10 minutes. The reactions were then quenched with 120 μL of ice cold methanol containing 1 μg/mL 1,2-distearoyl-rac-glycerol as the internal standard. Plates were shaken for 2 minutes and spun down to remove protein precipitation. After the spin, samples were transferred to LC/MS compatible PCR plates. For LC/MS analysis, a ThermoFisher Surveyor pump, utilizing a Waters […]® C8, 50×2.1 mm column, was used for the chromatography of enzyme products. The buffer system consists of 0.1% formic acid in water with a mobile phase consisting 0.1% formic acid in methanol. The shallow gradient is 90-100% mobile phase in 0.2 min with a total run time of 2.3 min. The first 0.5 minutes of each injection was diverted to waste to eliminate the presence of phosphate buffer in the enzymatic reaction. The column was run at 0.6 mL/min and a temperature of 65° C. Mass spectrometry analysis of the samples was performed on a ThermoFisher Quantum Triple quad utilizing APCI (+) as the mode of ionization. Data was acquired in Single Ion Monitoring (SIM) mode analyzing Diolein=m/z 603.6 (PRODUCT) and 1,2-distearoyl-rac-glycerol (IS)=m/z 607.6. The ratio of Diolein to internal standard (Peak Area Ratio) is utilized to calculate IC50 values.
“NT” denotes “Not tested”.
`Cc1csc(C2=C(c3nnn[nH]3)C(=O)N[C@@](c3ccc(OCCCC(F)(F)F)cc3)(C(F)(F)F)C2)c1` [Example 10] gave an IC50 of 2000 to 10000 nM.

Same assay, conditions: human MGAT2 membranes expressed in Sf9 cells; 100 μM 2-oleoylglycerol, 15 μM oleoyl-coenzyme A
For `CN(C)c1ccc(C2=C(c3nnn[nH]3)C(=O)N[C@@](c3ccc(OCCCC(F)(F)F)cc3)(C(F)(F)F)C2)cn1` [Example 14], the IC50 was 72.1 nM.
In the case of `O=C1N[C@@](c2ccc(OCCCC(F)(F)F)cc2)(C(F)(F)F)CC(c2cnn(C3CC3)c2)=C1c1nnn[nH]1` [Example 18], the IC50 is reported as 24.5 nM.
With `Cc1csc(C2=C(C#N)C(=O)N[C@@](c3ccc(OCCCC(F)(F)F)cc3)(C(F)(F)F)C2)c1` [Example 69, (S)-4-(4-Methylthiophen-2-yl)-2-oxo-6-(4-(4,4,4-trifluorobutoxy)phenyl)-6-(trifluoromethyl)-1,2,5,6-tetrahydropyridine-3-carbonitrile] the IC50 was 148 nM.
`CCc1cnc(C2=C(c3nnn[nH]3)C(=O)N[C@@](c3ccc(OCCCCCC(F)(F)F)cc3F)(C(F)(F)F)C2)s1` [Example 66] was tested, and the IC50 was 0.5 nM.
`CC(C)n1nc(C2=C(c3nnn[nH]3)C(=O)N[C@@](c3ccc(OCCCCCC(F)(F)F)cc3)(C(F)(F)F)C2)c2ccccc21` [Example 33] gave an IC50 of 950 nM.
`CCCCCCC#C[C@]1(C(F)(F)F)CC(c2ccc(Cl)s2)=C(c2nnn[nH]2)C(=O)N1` [Example 5] showed an IC50 of 7.8 nM.
`O=C1N[C@@](c2ccc(OCCCCCC(F)(F)F)cc2)(C(F)(F)F)CC(c2ccn(CC3CC3)n2)=C1c1nnn[nH]1` [Example 30] gave an IC50 of 2.7 nM.
`COc1cc(OCCCC(F)(F)F)ccc1[C@]1(C(F)(F)F)CC(c2ccc(C3CC3)s2)=C(c2nnn[nH]2)C(=O)N1` [Example 57] gave an IC50 of 1.4 nM.
With `CN(C)Cc1ccc(C2=C(c3nnn[nH]3)C(=O)N[C@@](c3ccc(OCCCC(F)(F)F)cc3)(C(F)(F)F)C2)s1` [Example 12] the IC50 was 363 nM.
Work on `O=C1N[C@@](c2ccc(OCCCC(F)(F)F)cc2)(C(F)(F)F)CC(c2ccc(Cl)s2)=C1c1nnn[nH]1` [Example 3] yielded an IC50 of 370 nM.
`CCn1ccc(C2=C(c3nnn[nH]3)C(=O)N[C@@](c3ccc(OCCCC(F)(F)F)cc3F)(C(F)(F)F)C2)n1` [Example 43] showed an IC50 of 20.2 nM.
Work on `Cc1cnc(C2=C(c3nnn[nH]3)C(=O)N[C@@](c3ccc(OCCCC(F)(F)F)cc3)(C(F)(F)F)C2)s1` [Example 13] yielded an IC50 of 19.4 nM.
With `CCc1ccc(C2=C(c3nnn[nH]3)C(=O)N[C@@](c3ccc(Br)cc3)(C(F)(F)F)C2)s1` [Example 65] the IC50 was 8.8 nM.
Compound `O=C1N[C@@](c2ccc(OCCCC(F)(F)F)cc2)(C(F)(F)F)CC(c2ccc(C3CC3)s2)=C1c1nnn[nH]1` [Example 1, (S)-4-(5-Cyclopropylthiophen-2-yl)-3-(1H-tetrazol-5-yl)-6-(4-(4,4,4-trifluorobutoxy)phenyl)-6-(trifluoromethyl)-5,6-dihydropyridin-2(1H)-one] has an IC50 of 2.5 nM.
Compound `CN(C)c1ccc(C2=C(c3nnn[nH]3)C(=O)N[C@@](c3ccc(OCCCC(F)(F)F)cc3)(C(F)(F)F)C2)nc1` [Example 28] has an IC50 of 17.6 nM.
`O=C1N[C@@](c2ccc(OCCCC(F)(F)F)cc2F)(C(F)(F)F)CC(c2ccn(C3CC3)n2)=C1c1nnn[nH]1` [Example 41] was tested, and the IC50 was 73.6 nM.
With `CC(C)n1ccc(C2=C(c3nnn[nH]3)C(=O)N[C@@](c3ccc(CCCCC(F)(F)F)cc3F)(C(F)(F)F)C2)n1` [Example 46] the IC50 was 11.4 nM.
With `O=C1N[C@@](c2ccc(OCCCC(F)(F)F)cc2Cl)(C(F)(F)F)CC(c2ncc(C3CC3)s2)=C1c1nnn[nH]1` [Example 64] the IC50 was 1.1 nM.
`O=C1N[C@@](c2ccc(OCCCC(F)(F)F)cc2Cl)(C(F)(F)F)CC(c2ccn(C3CC3)n2)=C1c1nnn[nH]1` [Example 61] gave an IC50 of 120 nM.
For `N#CC1=C(c2ccc(Cl)s2)C[C@](c2ccc(OCCCC(F)(F)F)cc2)(C(F)(F)F)NC1=O` [Example 68, (S)-4-(5-Chlorothiophen-2-yl)-2-oxo-6-(4-(4,4,4-trifluorobutoxy)phenyl)-6-(trifluoromethyl)-1,2,5,6-tetrahydropyridine-3-carbonitrile], the IC50 was 30.2 nM.
`O=C1N[C@@](c2ccc(OCCCC(F)(F)F)cc2F)(C(F)(F)F)CC(c2ccn(CC3CC3)n2)=C1c1nnn[nH]1` [Example 52] showed an IC50 of 3.2 nM.
Work on `O=C1N[C@@](c2ccc(OCCCCCC(F)(F)F)cc2)(C(F)(F)F)CC(c2nc3ccccc3s2)=C1c1nnn[nH]1` [Example 60] yielded an IC50 of 137 nM.
For `COc1ccc(NC(=O)C2=C(c3ccn(C4CC4)n3)C[C@](c3ccc(OCCCC(F)(F)F)cc3)(C(F)(F)F)NC2=O)cc1` [Example 76, (S)-4-(1-Cyclopropyl-1H-pyrazol-3-yl)-N-(4-methoxyphenyl)-2-oxo-6-(4-(4,4,4-trifluorobutoxy)phenyl)-6-(trifluoromethyl)-1,2,5,6-tetrahydropyridine-3-carboxamide], the IC50 was 4.2 nM.
Work on `O=C1N[C@@](c2ccc(OCCCC(F)(F)F)cc2)(C(F)(F)F)CC(c2ccn(C3CC3)n2)=C1c1nnn[nH]1` [Example 17] yielded an IC50 of 16.6 nM.
`CC(C)Cn1ccc(C2=C(c3nnn[nH]3)C(=O)N[C@@](c3ccc(CCCCC(F)(F)F)cc3F)(C(F)(F)F)C2)n1` [Example 50] showed an IC50 of 9.4 nM.
In the case of `O=C1N[C@@](c2ccc(OCCCCCC(F)(F)F)cc2)(C(F)(F)F)CC(c2ccn(C3CC3)n2)=C1c1nnn[nH]1` [Example 25], the IC50 is reported as 102 nM.
In the case of `Cc1ccc(C2=C(c3nnn[nH]3)C(=O)N[C@@](c3ccc(OCCCC(F)(F)F)cc3)(C(F)(F)F)C2)s1` [Example 2], the IC50 is reported as 41 nM.
In the case of `COc1ccc(C2=C(C#N)C(=O)N[C@@](c3ccc(OCCCCC(F)(F)F)cc3)(C(F)(F)F)C2)cn1` [Example 70, (S)-6-Methoxy-2′-oxo-6′-(trifluoromethyl)-6′-(4-((5,5,5-trifluoropentyl)oxy)phenyl)-1′,2′,5′,6′-tetrahydro-[3,4′-bipyridine]-3′-carbonitrile], the IC50 is reported as 32.3 nM.
`Cc1ccsc1C1=C(c2nnn[nH]2)C(=O)N[C@@](c2ccc(OCCCC(F)(F)F)cc2)(C(F)(F)F)C1` [Example 11] was tested, and the IC50 was 873 nM.
`CCc1ccc(C2=C(NC(=O)CS(C)(=O)=O)C(=O)N[C@@](c3ccc(OCCCCCC(F)(F)F)cc3)(C(F)(F)F)C2)s1` [Example 75, (S)—N-(4-(5-Ethylthiophen-2-yl)-2-oxo-6-(4-((6,6,6-trifluorohexyl)oxy)phenyl)-6-(trifluoromethyl)-1,2,5,6-tetrahydropyridin-3-yl)-2-(methylsulfonyl)acetamide] was tested, and the IC50 was 1.5 nM.
Work on `O=C1N[C@@](c2ccc(OCCCCCC(F)(F)F)cc2Cl)(C(F)(F)F)CC(c2ncc(C3CC3)s2)=C1c1nnn[nH]1` [Example 63] yielded an IC50 of 0.7 nM.
For `N#CC1=C(c2ccc(C3CC3)s2)C[C@](c2ccc(OCCCC(F)(F)F)cc2)(C(F)(F)F)NC1=O` [Example 74, (S)-4-(5-Cyclopropylthiophen-2-yl)-2-oxo-6-(4-(4,4,4-trifluorobutoxy)phenyl)-6-(trifluoromethyl)-1,2,5,6-tetrahydropyridine-3-carbonitrile], the IC50 was 15 nM.
For `CC(C)n1ccc(C2=C(c3nnn[nH]3)C(=O)N[C@@](c3ccc(OCCCCCC(F)(F)F)cc3)(C(F)(F)F)C2)n1` [Example 26], the IC50 was 43.7 nM.
`O=C1N[C@@](c2ccc(CCCCC(F)(F)F)cc2F)(C(F)(F)F)CC(c2ccn(CC3CC3)n2)=C1c1nnn[nH]1` [Example 42] was tested, and the IC50 was 3 nM.
Compound `O=C1N[C@@](c2ccc(OCCCC(F)(F)F)cc2)(C(F)(F)F)CC(c2ccn(CC3CC3)n2)=C1c1nnn[nH]1` [Example 19] has an IC50 of 31.8 nM.
With `CCCCCCC#C[C@]1(C(F)(F)F)CC(c2ccc(Br)s2)=C(c2nnn[nH]2)C(=O)N1` [Example 6] the IC50 was 2.2 nM.
Compound `O=C1N[C@@](c2ccc(OCCCC(F)(F)F)cc2F)(C(F)(F)F)CC(c2ncc(C3CC3)s2)=C1c1nnn[nH]1` [Example 59] has an IC50 of 1.4 nM.
`O=C1N[C@@](c2ccc(OCCCCCC(F)(F)F)cc2F)(C(F)(F)F)CC(c2cnn(C3CC3)c2)=C1c1nnn[nH]1` [Example 15] gave an IC50 of 14.5 nM.
Work on `COc1ccc(C2=C(C#N)C(=O)N[C@@](c3ccc(OCCCCCC(F)(F)F)cc3)(C(F)(F)F)C2)cn1` [Example 72, (S)-6-Methoxy-2′-oxo-6′-(4-((6,6,6-trifluorohexyl)oxy)phenyl)-6′-(trifluoromethyl)-1′,2′,5′,6′-tetrahydro-[3,4′-bipyridine]-3′-carbonitrile] yielded an IC50 of 10.3 nM.
For `O=C1N[C@@](c2ccc(CCCCC(F)(F)F)cc2)(C(F)(F)F)CC(c2ccn(CC3CC3)n2)=C1c1nnn[nH]1` [Example 22], the IC50 was 1.2 nM.
`CC(C)Cn1ccc(C2=C(c3nnn[nH]3)C(=O)N[C@@](c3ccc(OCCCCCC(F)(F)F)cc3)(C(F)(F)F)C2)n1` [Example 31] gave an IC50 of 61.9 nM.
`CCc1ccc(C2=C(c3nnn[nH]3)C(=O)N[C@@](c3ccc(OCCCCCC(F)(F)F)cc3)(C(F)(F)F)C2)s1` [Example 58] showed an IC50 of 2.2 nM.
For `O=C1N[C@@](c2ccc(OCCCC(F)(F)F)cc2F)(C(F)(F)F)CC(c2ccn(CC3CCC3)n2)=C1c1nnn[nH]1` [Example 53], the IC50 was 44 nM.
With `Cc1ccc(C2=C(C#N)C(=O)N[C@@](c3ccc(OCCCCCC(F)(F)F)cc3)(C(F)(F)F)C2)s1` [Example 71, (S)-4-(5-Methylthiophen-2-yl)-2-oxo-6-(4-((6,6,6-trifluorohexyl)oxy)phenyl)-6-(trifluoromethyl)-1,2,5,6-tetrahydropyridine-3-carbonitrile] the IC50 was 31.5 nM.

— patent US9701672B2, “Dihydropyridinone MGAT2 inhibitors for use in the treatment of metabolic disorders” (BRISTOL-MYERS SQUIBB COMPANY, priority 2014, dated 2017)
